Experimental data taken from PMC8307506, “Identification of Dihydromyricetin and Metabolites in Serum and Brain Associated with Acute Anti-Ethanol Intoxicating Effects in Mice” (International Journal of Molecular Sciences, 2021).

Experiments:
[1] = design: method as in PMID 28114854; details: cited from earlier work
[2] = design: method as in PMID 28534405; details: Sprague Dawley rats, 100 mg/kg PO; cited from earlier work
α5β3γ2 GABAA receptors = target: T1, α5β3γ2 GABAA receptors (Homo sapiens, UniProt P18507+P28472+P31644); test: Two-electrode voltage clamp electrophysiology in Xenopus oocytes in the presence of GABA; format: cell-based; details: compound 10 µM, GABA 10 µM
T1 construct: expressed in transfected cells; host or cells: Xenopus oocytes (injected with cDNA)
T1 sequence (P31644 32-462): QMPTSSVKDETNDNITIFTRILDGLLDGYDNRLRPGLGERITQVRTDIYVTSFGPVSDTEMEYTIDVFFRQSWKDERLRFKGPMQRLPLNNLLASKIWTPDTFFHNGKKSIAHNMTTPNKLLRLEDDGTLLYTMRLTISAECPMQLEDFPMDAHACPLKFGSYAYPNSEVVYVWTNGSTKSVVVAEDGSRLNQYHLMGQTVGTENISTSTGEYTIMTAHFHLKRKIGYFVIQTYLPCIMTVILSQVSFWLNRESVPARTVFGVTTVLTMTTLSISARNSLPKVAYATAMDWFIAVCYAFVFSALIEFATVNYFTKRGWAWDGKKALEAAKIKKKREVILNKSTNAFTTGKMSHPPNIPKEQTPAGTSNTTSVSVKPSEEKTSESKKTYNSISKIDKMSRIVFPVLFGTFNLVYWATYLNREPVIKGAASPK
T1 sequence (P28472 26-473): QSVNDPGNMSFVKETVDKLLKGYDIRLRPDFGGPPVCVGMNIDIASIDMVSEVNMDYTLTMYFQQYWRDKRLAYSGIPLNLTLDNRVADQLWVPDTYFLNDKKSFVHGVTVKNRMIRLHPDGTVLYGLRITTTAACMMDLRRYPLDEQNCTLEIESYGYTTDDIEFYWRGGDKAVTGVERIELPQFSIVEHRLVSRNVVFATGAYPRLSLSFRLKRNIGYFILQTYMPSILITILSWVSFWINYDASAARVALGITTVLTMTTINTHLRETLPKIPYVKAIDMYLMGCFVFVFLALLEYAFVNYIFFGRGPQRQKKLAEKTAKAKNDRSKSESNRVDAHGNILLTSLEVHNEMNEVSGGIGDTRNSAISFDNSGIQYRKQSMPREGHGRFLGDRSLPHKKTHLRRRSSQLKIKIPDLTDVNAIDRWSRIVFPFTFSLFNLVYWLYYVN
T1 sequence (P18507 40-475): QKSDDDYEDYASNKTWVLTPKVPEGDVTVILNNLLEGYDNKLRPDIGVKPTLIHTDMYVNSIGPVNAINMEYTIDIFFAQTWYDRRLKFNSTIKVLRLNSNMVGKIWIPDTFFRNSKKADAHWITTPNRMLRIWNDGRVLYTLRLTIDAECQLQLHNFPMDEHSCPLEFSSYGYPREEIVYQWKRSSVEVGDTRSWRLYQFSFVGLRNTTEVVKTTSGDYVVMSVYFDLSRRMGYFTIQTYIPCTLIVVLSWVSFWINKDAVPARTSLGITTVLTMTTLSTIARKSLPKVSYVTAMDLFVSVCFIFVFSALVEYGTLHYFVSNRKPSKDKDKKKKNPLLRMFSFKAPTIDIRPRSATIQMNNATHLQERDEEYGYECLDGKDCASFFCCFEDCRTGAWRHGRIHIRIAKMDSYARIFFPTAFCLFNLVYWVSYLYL
Method: Xenopus oocytes were stored in incubation media (pH 7.5), consisting of ND96 supplemented with 2 mM sodium pyruvate, […] gentamycin, and 10 mL heat inactivated HyClone horse serum. Stage 4 to 5 oocytes were injected with 40 nL of cDNA coding for α5, β3, and γ2 subunits in a ratio of 1:1:10, utilizing a Drummond Nanoject III. Injected oocytes were stored at 18 °C and used in electrophysiology studies within 2–7 days of injection.
Whole cell two-electrode voltage clamp (TEVC) recording were conducted on oocytes in the presence of GABA, according to previously reported methods. Oocytes were voltage clamped at a membrane potential of −70 mV. The oocyte recording chamber was continuously perfused with modified bath solution (MBS) with select compound (10 µM) and GABA (10 µM), with a final concentration of 1% DMSO [22, 44]. […] Oocytes were perfused at a rate of 3 mL/min. Electrophysiology recordings were conducted in triplicate compound for each compound. The change of GABAAR activity was determined by comparison of GABAAR potentiation to the EC20 with control saline in the presence of GABA.
Pharmacokinetic parameters were calculated using noncompartmental analysis. Elimination half-life (T1/2) was calculated with R software from the linear regression of the terminal phase of the log serum concentration-time curve. The AUC0→24 was calculated with OriginLab software by trapezoidal analysis of the serum concentration-time plot. Cmax and Tmax were determined directly from observed data. Data are expressed as mean ± SEM. Statistical significance between AUC0→24 among test groups was calculated with an independent t-test (GraphPad software, San Diego, CA, USA). Time to LORR was analyzed by repeated measured ANOVA. Tolerance was determined by mean split in LORR response and confirmed with paired t-test (Week 1 vs. Week 8). Statistical significance of serum concentrations for individual time points was calculated using a two-way analysis of variance (ANOVA) analysis. Post hoc Bonferroni tests were performed when justified. Statistical significance of electrophysiology results compound GABAergic modulation was determined using a paired t-test (Vehicle control vs. Compound, GraphPad software, San Diego CA, USA). p < 0.05 was considered significant.

O=C1c2c(O)cc(O)cc2O[C@H](c2cc(O)c(O)c(O)c2)[C@H]1O [DHM, Dihydromyricetin]
stability in acidic environments ([1]; acidic environments, similar to upper GI tract): stable
stability in solutions with pH > 6 ([1]; pH > 6): unstable
time DHM detected in brain tissue post administration [2]: up to 12 h
GABAAR potentiation (α5β3γ2 GABAA receptors): +43.2%
GABAAR potentiation (α5β3γ2 GABAA receptors; mean ± SEM): +43.2 ± 5.6
